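All cell lines were grown in 96-well plates and treated with compound for 48 hours. At the GI50, growth is halved. TGI: total growth inhibition.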
How the values were obtained:
Assay in all cases: NCI-60 cell line screen, 48 h
[1] = test system: DU-145 prostate
[2] = test system: HOP-92 NSCLC
[3] = test system: UO-31 renal
[4] = test system: SK-OV-3 ovarian
[5] = test system: OVCAR-3 ovarian
[6] = test system: CAKI-1 renal
[7] = test system: MDA-MB-435
[8] = test system: OVCAR-5 ovarian
[9] = test system: SNB-75 CNS
[10] = test system: MDA-MB-231 breast
[11] = test system: SR leukemia
[12] = test system: MCF7 breast
[13] = test system: SN12C renal
[14] = test system: IGROV1 ovarian
[15] = test system: RXF 393 renal
[16] = test system: A549 NSCLC
[17] = test system: UACC-62 melanoma
[18] = test system: CCRF-CEM leukemia
[19] = test system: COLO 205 colon
[20] = test system: M14 melanoma
[21] = test system: OVCAR-8 ovarian
[22] = test system: OVCAR-4 ovarian
[23] = test system: ACHN renal
[24] = test system: U251 CNS
[25] = test system: HCC-2998 colon
[26] = test system: HCT-15 colon
[27] = test system: K-562 leukemia
[28] = test system: SK-MEL-2 melanoma
[29] = test system: SK-MEL-5 melanoma
[30] = test system: PC-3 prostate
[31] = test system: TK-10 renal
[32] = test system: NCI-H522 lung
[33] = test system: LOX IMVI melanoma
[34] = test system: HCT-116 colon
[35] = test system: T-47D breast
[36] = test system: SF-539 CNS
[37] = test system: HL-60(TB) leukemia
[38] = test system: NCI-H226 lung
[39] = test system: RPMI-8226 leukemia
[40] = test system: HT29 colon
[41] = test system: NCI-H23 lung
[42] = test system: UACC-257 melanoma
[43] = test system: SNB-19 CNS
[44] = test system: MALME-3M melanoma
[45] = test system: BT-549 breast
[46] = test system: NCI/ADR-RES ovarian
[47] = test system: 786-0 renal
[48] = test system: SK-MEL-28 melanoma
[49] = test system: HOP-62 NSCLC
[50] = test system: MOLT-4 leukemia
[51] = test system: KM12 colon
[52] = test system: SF-268 CNS
[53] = test system: EKVX NSCLC
[54] = test system: SF-295 CNS

Compound `N=C(N)c1ccc(-c2ccc(-c3ccc(Cl)cc3Cl)o2)nc1` has a GI50 [1] of 1.78 µM, a TGI [1] of 3.21 µM and a GI50 [2] of 1.44 µM. The TGI [2] was 2.9 µM, the GI50 [3] was 1.56 µM and the TGI [3] was 2.92 µM. It also gave a GI50 [4] of 1.77 µM, a TGI [4] of 3.52 µM and a GI50 [5] of 1.81 µM. It also gave a TGI [5] of 3.23 µM, a GI50 [6] of 1.52 µM and a TGI [6] of 2.96 µM. It also gave a GI50 [7] of 1.72 µM, a TGI [7] of 3.1 µM and a GI50 [8] of 1.64 µM. For the same compound, the TGI [8] was 3.05 µM, the GI50 [9] was 1.46 µM and the TGI [9] was 2.78 µM. It also gave a GI50 [10] of 1.64 µM, a TGI [10] of 3.16 µM and a GI50 [11] of 0.311 µM. It also gave a TGI [11] of 1.43 µM.
Work on `O=C1/C(=C\c2ccc(F)cc2)CN(C(=O)c2ccccc2)C/C1=C\c1ccc(F)cc1` yielded a GI50 [12] of 0.841 µM, a TGI [12] of 4.31 µM and a GI50 [13] of 3.02 µM. The TGI [13] was 12.1 µM, the GI50 [14] was 3.33 µM and the TGI [14] was 10.7 µM. For the same compound, the GI50 [15] was 1.99 µM, the TGI [15] was 4.85 µM and the GI50 [2] was 1.48 µM. The TGI [2] was 9.1 µM, the GI50 [16] was 4.92 µM and the TGI [16] was 71.9 µM. For the same compound, the GI50 [17] was 1.84 µM, the TGI [17] was 4.83 µM and the GI50 [18] was 1.05 µM. For the same compound, the TGI [18] was greater than 100 µM, the GI50 [19] was 3.15 µM and the TGI [19] was 10 µM. For the same compound, the GI50 [20] was 2.05 µM, the TGI [20] was 4.65 µM and the GI50 [21] was 2.82 µM. The TGI [21] was 17.5 µM, the GI50 [22] was 1.84 µM and the TGI [22] was 18.1 µM. It also gave a GI50 [23] of 1.75 µM, a TGI [23] of 3.77 µM and a GI50 [24] of 1.65 µM. The TGI [24] was 3.76 µM, the GI50 [25] was 2.62 µM and the TGI [25] was 6.98 µM. For the same compound, the GI50 [26] was 1.5 µM, the TGI [26] was 3.53 µM and the GI50 [27] was 0.983 µM. For the same compound, the TGI [27] was greater than 100 µM, the GI50 [28] was 4.44 µM and the TGI [28] was 19.5 µM. It also gave a GI50 [3] of 2.4 µM, a TGI [3] of 10.6 µM and a GI50 [29] of 1.66 µM. The TGI [29] was 3.8 µM, the GI50 [30] was 2.08 µM and the TGI [30] was 6.59 µM. For the same compound, the GI50 [31] was 4.21 µM, the TGI [31] was 17.3 µM and the GI50 [32] was 2.35 µM. The TGI [32] was 7.73 µM, the GI50 [33] was 1.41 µM and the TGI [33] was 3.18 µM. It also gave a GI50 [34] of 0.428 µM, a TGI [34] of 1.71 µM and a GI50 [35] of 6.22 µM. It also gave a TGI [35] of 71.4 µM, a GI50 [36] of 2.56 µM and a TGI [36] of 7.58 µM. The GI50 [37] was 3.56 µM, the TGI [37] was greater than 100 µM and the GI50 [38] was 26.6 µM. It also gave a TGI [38] greater than 100 µM, a GI50 [39] of 0.296 µM and a TGI [39] of 1.17 µM. For the same compound, the GI50 [4] was 5.95 µM, the TGI [4] was 19.5 µM and the GI50 [40] was 1.67 µM. For the same compound, the TGI [40] was 4.34 µM, the GI50 [41] was 4.83 µM and the TGI [41] was 21.8 µM. It also gave a GI50 [6] of 2.82 µM, a TGI [6] of 66.2 µM and a GI50 [42] of 2.41 µM. For the same compound, the TGI [42] was 8.52 µM, the GI50 [43] was 5.05 µM and the TGI [43] was 20.8 µM. The GI50 [7] was 2.11 µM, the TGI [7] was 5.65 µM and the GI50 [8] was 2.64 µM. The TGI [8] was 11.7 µM, the GI50 [9] was 3.57 µM and the TGI [9] was 42.6 µM. The GI50 [44] was 3.66 µM, the TGI [44] was 12.2 µM and the GI50 [10] was 2.27 µM. It also gave a TGI [10] of 6.39 µM, a GI50 [45] of 1.81 µM and a TGI [45] of 3.43 µM. The GI50 [46] was 4.14 µM, the TGI [46] was greater than 100 µM and the GI50 [11] was 0.484 µM. It also gave a TGI [11] of 26.8 µM, a GI50 [47] of 1.83 µM and a TGI [47] of 4.25 µM. It also gave a GI50 [48] of 2.24 µM, a TGI [48] of 5.88 µM and a GI50 [49] of 3.07 µM. It also gave a TGI [49] of 8.5 µM, a GI50 [50] of 2.56 µM and a TGI [50] of 72.5 µM.
With `OC(c1cc(-c2cccc(Cl)c2)nc2ccccc12)C1CCCCN1` (centres undefined) the GI50 [1] was 1.76 µM, the TGI [1] was 3.15 µM and the GI50 [13] was 2.17 µM. The TGI [13] was 5.19 µM, the GI50 [14] was 1.69 µM and the TGI [14] was 3.21 µM. For the same compound, the GI50 [2] was 1.12 µM, the TGI [2] was 2.51 µM and the GI50 [16] was 1.7 µM. It also gave a TGI [16] of 3.1 µM, a GI50 [17] of 1.93 µM and a TGI [17] of 3.58 µM. The GI50 [18] was 2.08 µM, the TGI [18] was 4.74 µM and the GI50 [51] was 1.79 µM. For the same compound, the TGI [51] was 3.2 µM, the GI50 [19] was 1.98 µM and the TGI [19] was 3.7 µM. The GI50 [52] was 1.57 µM, the TGI [52] was 2.97 µM and the GI50 [20] was 1.91 µM. It also gave a TGI [20] of 3.74 µM, a GI50 [21] of 1.79 µM and a TGI [21] of 3.42 µM. For the same compound, the GI50 [23] was 1.64 µM, the TGI [23] was 3.13 µM and the GI50 [24] was 1.66 µM. For the same compound, the TGI [24] was 3.05 µM, the GI50 [25] was 2.09 µM and the TGI [25] was 4.15 µM. For the same compound, the GI50 [26] was 1.91 µM, the TGI [26] was 3.91 µM and the GI50 [27] was 1.39 µM. For the same compound, the TGI [27] was 4.46 µM, the GI50 [28] was 2.18 µM and the TGI [28] was 4.02 µM. The GI50 [3] was 1.36 µM, the TGI [3] was 2.74 µM and the GI50 [30] was 1.4 µM. It also gave a TGI [30] of 2.84 µM, a GI50 [31] of 2.12 µM and a TGI [31] of 4.48 µM. The GI50 [32] was 1.97 µM, the TGI [32] was 3.66 µM and the GI50 [33] was 1.76 µM. The TGI [33] was 3.36 µM, the GI50 [34] was 1.75 µM and the TGI [34] was 3.38 µM. It also gave a GI50 [35] of 2.09 µM, a TGI [35] of 3.93 µM and a GI50 [36] of 1.93 µM. The TGI [36] was 3.61 µM, the GI50 [37] was 1.72 µM and the TGI [37] was 4.22 µM. The GI50 [53] was 1.45 µM, the TGI [53] was 2.94 µM and the GI50 [39] was 2.68 µM. The TGI [39] was 6.45 µM, the GI50 [4] was 3.54 µM and the TGI [4] was 12.2 µM. It also gave a GI50 [40] of 1.7 µM, a TGI [40] of 3.42 µM and a GI50 [41] of 2.01 µM. The TGI [41] was 4.2 µM, the GI50 [5] was 1.81 µM and the TGI [5] was 3.21 µM. It also gave a GI50 [6] of 1.24 µM, a TGI [6] of 2.72 µM and a GI50 [54] of 1.59 µM. It also gave a TGI [54] of 3.22 µM, a GI50 [42] of 1.85 µM and a TGI [42] of 3.33 µM. It also gave a GI50 [43] of 1.95 µM, a TGI [43] of 3.95 µM and a GI50 [7] of 1.63 µM. For the same compound, the TGI [7] was 3.15 µM, the GI50 [8] was 1.62 µM and the TGI [8] was 3.29 µM. The GI50 [9] was 1.38 µM, the TGI [9] was 3.23 µM and the GI50 [44] was 2.05 µM. The TGI [44] was 3.77 µM, the GI50 [10] was 1.66 µM and the TGI [10] was 3.37 µM. The GI50 [46] was 1.99 µM, the TGI [46] was 4.02 µM and the GI50 [11] was 1.27 µM. It also gave a TGI [11] of 3.8 µM, a GI50 [47] of 1.84 µM and a TGI [47] of 3.47 µM. It also gave a GI50 [48] of 1.81 µM, a TGI [48] of 3.42 µM and a GI50 [49] of 1.78 µM. It also gave a TGI [49] of 3.32 µM, a GI50 [50] of 1.6 µM and a TGI [50] of 4.14 µM.

From PubChem BioAssay (NCI)
